We go through 19 compounds from patent publication US10399989B2, “Pyrazolopyrimidine derivatives as BTK inhibitors for the treatment of cancer” (Loxo Oncology, Inc., priority 2016, dated 2019).

One experiment deals with EGFR (Homo sapiens (Human), UniProt P00533). The experiment can be described thus: EGFR binding affinity (TR-FRET, LanthaScreen). Particulars: 5 h incubation. As to the method: EGFR binding affinity was determined using a time-resolved fluorescence resonance energy transfer (TR-FRET) methodology. 2.5 nM Recombinant EGFR, varying concentrations of inhibitor, 2 nM LanthaScreen™ Eu anti-GST Antibody and 3 nM Kinase Tracer 199 was incubated in 1× LanthaScreen™ Kinase Buffer A for 5 h. Recombinant EGFR and all LanthaScreen™ components were purchased from Invitrogen. Measurements were performed in a reaction volume of 30 μL using half-area 96-well assay plates. The TR-FRET signal was read on a plate reader with an excitation wavelength of 340 nm and detection wavelengths of 615 and 665 nm. Binding affinity was determined for each compound by measuring TR-FRET signal at various concentrations of compound and plotting the relative fluorescence units against the inhibitor concentration to estimate the IC50 from log [Inhibitor] vs response using the Variable Slope model in Graphpad prism from Graphpad software (SanDiego, Calif.).

Experiment [1] relates to OCI-Ly10 human DLBCL cells. The experiment in a line: OCI-Ly10 anti-proliferative activity (Resazurin, 72 h). It is filed as cell-based. Particulars: Homo sapiens, OCI-Ly10, 72 h, read-out: Proliferation OCI-Ly10-IC50. The protocol: Compounds were assayed for effects on the growth of OCI-Ly10 human DLBCL cells that are dependent on NFκB signalling. OCI-Ly10 cells were grown in suspension in T225 flasks, centrifuged and re-suspended in 2.5% FBS containing media. Cells were then plated at 7.5×10^3 cells per well in 96-well plates in varying concentrations of compound and incubated for 72 h at 37° C. An additional plate of cells to be used as the Day 0 read was seeded without compound addition, Resazurin was added to each well, incubated for 5 h and the fluorescence measured at 590 nm. After 72 h of compound treatment, Resazurin was added to each well of the compound treated plates, incubated for 5 h and the fluorescence measured at 590 nm. The IC50 was then calculated by subtracting the average Day 0 value from each well value from the treated plates, each treatment was then calculated as a percentage of the DMSO control and the percentages plotted against the inhibitor concentration to estimate the IC50 from log [Inhibitor] vs response using the Variable Slope model in Graphpad prism from Graphpad software (SanDiego, Calif.).
On the technique in general: The colour change of resazurin is a common sign of viable cells or microbes.

The next experiment deals with BTK^C481S (Homo sapiens (Human), UniProt Q06187, C481S). The experiment can be described thus: BTK^C481S binding affinity (TR-FRET, LanthaScreen). The conditions noted are these: 5 h incubation. The protocol: (§1) BTK^C481S binding affinity of each compound tested was determined using a time-resolved fluorescence resonance energy transfer (TR-FRET) methodology. 5 nM Recombinant […] kinase, varying concentrations of inhibitor, 2 nM LanthaScreen™ Eu anti-His Antibody and 30 nM Kinase Tracer 236 was incubated in 1× LanthaScreen™ Kinase Buffer A for 5 h. Recombinant BTK^C481S kinase was purchased from SignalChem and all LanthaScreen™ components were purchased from Invitrogen. Measurements were performed in a reaction volume of 30 μL using half-area 96-well assay plates. The TR-FRET signal was read on a plate reader with an excitation wavelength of 340 nm and detection wavelengths of 615 and 665 nm. Binding affinity was determined for each compound by measuring TR-FRET signal at various concentrations of compound and plotting the relative fluorescence units against the inhibitor concentration to estimate the IC50 from log [Inhibitor] vs response using the Variable Slope model in Graphpad prism from Graphpad software (SanDiego, Calif.).
(In general: TR-FRET usually uses a lanthanide donor and a delayed reading to cut background.)

Another experiment addresses BTK^WT (Homo sapiens (Human), UniProt Q06187). The experiment in a line: BTK^WT binding affinity (TR-FRET, LanthaScreen). Particulars: TR-FRET binding, 5 h incubation; read-out: BTK^WT IC50. The protocol: as §1, with “BTK^WT binding” for “BTK^C481S binding”, “methodology. 2.5” for “methodology. 5”, “and 15” for “and 30”, “Recombinant BTK” for “Recombinant BTK^C481S”, “kinase” for “kinase was purchased from SignalChem”

pIC50: −log10 of the molar value.

BTK^WT, sequence (Q06187 whole entry): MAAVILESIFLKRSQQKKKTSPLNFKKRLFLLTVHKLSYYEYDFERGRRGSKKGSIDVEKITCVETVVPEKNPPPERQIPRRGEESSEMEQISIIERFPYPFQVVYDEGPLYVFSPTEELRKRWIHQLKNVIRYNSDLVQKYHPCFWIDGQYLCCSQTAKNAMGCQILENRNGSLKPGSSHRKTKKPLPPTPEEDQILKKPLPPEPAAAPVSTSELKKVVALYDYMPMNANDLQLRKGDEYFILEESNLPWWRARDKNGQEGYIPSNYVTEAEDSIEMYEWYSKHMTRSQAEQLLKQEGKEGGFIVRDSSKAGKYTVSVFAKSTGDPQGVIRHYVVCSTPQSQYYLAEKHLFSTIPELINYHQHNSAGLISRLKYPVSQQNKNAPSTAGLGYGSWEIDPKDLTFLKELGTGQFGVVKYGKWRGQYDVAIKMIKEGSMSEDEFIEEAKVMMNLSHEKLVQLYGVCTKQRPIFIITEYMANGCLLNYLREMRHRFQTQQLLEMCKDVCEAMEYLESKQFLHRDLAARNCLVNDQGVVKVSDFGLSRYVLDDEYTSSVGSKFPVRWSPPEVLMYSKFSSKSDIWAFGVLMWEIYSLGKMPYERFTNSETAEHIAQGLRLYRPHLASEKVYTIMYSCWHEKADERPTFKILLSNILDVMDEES
BTK^C481S, sequence (Q06187 whole entry C481S): as the sequence (Q06187 whole entry) above, with C481S counted along it
EGFR, sequence (P00533 25-1210): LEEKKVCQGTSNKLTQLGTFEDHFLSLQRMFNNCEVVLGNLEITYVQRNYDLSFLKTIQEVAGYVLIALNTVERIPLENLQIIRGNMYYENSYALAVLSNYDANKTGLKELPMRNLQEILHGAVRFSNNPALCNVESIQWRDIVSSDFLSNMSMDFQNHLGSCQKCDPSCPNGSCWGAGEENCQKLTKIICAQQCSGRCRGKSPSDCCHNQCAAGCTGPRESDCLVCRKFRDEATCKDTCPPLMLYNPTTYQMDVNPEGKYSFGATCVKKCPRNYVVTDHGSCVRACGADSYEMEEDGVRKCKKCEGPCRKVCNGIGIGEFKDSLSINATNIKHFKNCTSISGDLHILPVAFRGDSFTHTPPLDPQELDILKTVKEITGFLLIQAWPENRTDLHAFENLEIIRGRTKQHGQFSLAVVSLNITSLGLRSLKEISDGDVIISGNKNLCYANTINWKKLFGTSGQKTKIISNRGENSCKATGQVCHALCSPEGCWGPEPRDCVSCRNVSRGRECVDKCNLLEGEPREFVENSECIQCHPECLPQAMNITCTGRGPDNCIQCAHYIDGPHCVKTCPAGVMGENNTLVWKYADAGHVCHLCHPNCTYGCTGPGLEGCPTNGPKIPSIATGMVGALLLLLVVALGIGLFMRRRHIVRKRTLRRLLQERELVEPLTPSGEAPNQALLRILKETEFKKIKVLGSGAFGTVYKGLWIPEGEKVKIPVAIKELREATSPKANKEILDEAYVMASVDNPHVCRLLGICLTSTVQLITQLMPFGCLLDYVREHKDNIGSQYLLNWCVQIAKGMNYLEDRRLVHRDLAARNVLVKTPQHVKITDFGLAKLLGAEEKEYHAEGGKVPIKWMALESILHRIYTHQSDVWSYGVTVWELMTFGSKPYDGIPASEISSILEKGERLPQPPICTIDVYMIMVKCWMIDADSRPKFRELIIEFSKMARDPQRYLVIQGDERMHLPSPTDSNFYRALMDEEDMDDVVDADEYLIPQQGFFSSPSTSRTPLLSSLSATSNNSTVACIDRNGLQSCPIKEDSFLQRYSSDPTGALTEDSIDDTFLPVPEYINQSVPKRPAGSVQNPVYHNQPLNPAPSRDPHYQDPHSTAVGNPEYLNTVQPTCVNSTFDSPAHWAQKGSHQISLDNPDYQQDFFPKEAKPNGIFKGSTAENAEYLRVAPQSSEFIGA

Consider `COc1ccc(Cl)cc1C(=O)NCc1ccc(-c2nn(C3CCCC3)c3ncnc(N)c23)cc1` [Example 11, N-[[4-(4-amino-1-cyclopentyl-pyrazolo[3,4-d]pyrimidin-3-yl)phenyl]methyl]-5-chloro-2-methoxy-benzamide], for which the pIC50 was 5.00 to 6.00 at EGFR, 7.00 to 8.00 in experiment [1], at least 8.00 at BTK^C481S and at least 8.00 at BTK^WT.

Consider `COc1ccc(C)cc1C(=O)NCc1ccc(-c2nn(C3CCCC3)c3ncnc(N)c23)cc1` [Example 12, N-[[4-(4-amino-1-cyclopentyl-pyrazolo[3,4-d]pyrimidin-3-yl)phenyl]methyl]-2-methoxy-5-methyl-benzamide], for which the pIC50 is 5.00 to 6.00 at EGFR, 7.00 to 8.00 in experiment [1], at least 8.00 on BTK^C481S and at least 8.00 on BTK^WT.

As for `COc1ccccc1C(=O)NCc1ccc(-c2nn([C@@H]3C[C@@H](O)C4CC43)c3ncnc(N)c23)cc1` (stereo partly drawn) [Example 45, N-[[4-[4-amino-1-[(2R,4R)-4-hydroxy-2-bicyclo[3.1.0]hexanyl]pyrazolo[3,4-d]pyrimidin-3-yl]phenyl]methyl]-2-methoxy-benzamide], the pIC50 at EGFR was 6.00 to 7.00; in experiment [1] it was 6.00 to 7.00; on BTK^C481S, at least 8.00; at BTK^WT it was at least 8.00.

In the case of `COCCO[C@H]1C=C[C@H](n2nc(-c3ccc(CNC(=O)c4ccccc4OC)cc3)c3c(N)ncnc32)C1` [Example 57, N-[[4-[4-amino-1-[(1R,4R)-4-(2-methoxyethoxy)cyclopent-2-en-1-yl]pyrazolo[3,4-d]pyrimidin-3-yl]phenyl]methyl]-2-methoxy-benzamide], the pIC50 on EGFR is 5.00 to 6.00; in experiment [1], 6.00 to 7.00; at BTK^C481S, 5.00 to 6.00; on BTK^WT, 6.00 to 7.00.

With `COc1ccc(F)cc1C(=O)NCc1ccc(-c2nn(C(C)(C)C)c3ncnc(N)c23)cc1` [Example 43, N-[[4-(4-amino-1-tert-butyl-pyrazolo[3,4-d]pyrimidin-3-yl)phenyl]methyl]-5-fluoro-2-methoxy-benzamide], the pIC50 is 6.00 to 7.00 at EGFR, 7.00 to 8.00 in experiment [1], at least 8.00 at BTK^C481S and at least 8.00 at BTK^WT.

Regarding `COc1ccccc1C(=O)NCc1ccc(-c2nn(C3CCOCC3)c3ncnc(N)c23)cc1` [Example 29, N-[[4-(4-amino-1-tetrahydropyran-4-yl-pyrazolo[3,4-d]pyrimidin-3-yl)phenyl]methyl]-2-methoxy-benzamide], the pIC50 on EGFR is 6.00 to 7.00; in experiment [1], 6.00 to 7.00; at BTK^C481S, at least 8.00; on BTK^WT, at least 8.00.

For the compound `Nc1ncnc2c1c(-c1ccc(CNC(=O)c3ccccc3F)cc1)nn2C1CCCC1` [Example 2, N-[[4-(4-amino-1-cyclopentyl-pyrazolo[3,4-d]pyrimidin-3-yl)phenyl]methyl]-2-fluoro-benzamide], the pIC50 on EGFR was 7.00 to 8.00; in experiment [1] it was 5.00 to 6.00.

As for `COc1ccc(F)cc1C(=O)NCc1ccc(-c2nn(CC(F)(F)F)c3ncnc(N)c23)cc1` [Example 93, N-[[4-[4-Amino-1-(2,2,2-trifluoroethyl)pyrazolo[3,4-d]pyrimidin-3-yl]phenyl]methyl]-5-fluoro-2-methoxy-benzamide], the pIC50 on EGFR is below 5.00; in experiment [1], 6.00 to 7.00; at BTK^C481S it was at least 8.00; at BTK^WT it was at least 8.00.

Consider `COc1cc(Cl)ccc1C(=O)NCc1ccc(-c2nn(C3CCCC3)c3ncnc(N)c23)cc1` [Example 9, N-[[4-(4-amino-1-cyclopentyl-pyrazolo[3,4-d]pyrimidin-3-yl)phenyl]methyl]-4-chloro-2-methoxy-benzamide], for which the pIC50 at EGFR is below 5.00; in experiment [1] it was 6.00 to 7.00.

As for `COc1cccc(F)c1C(=O)NCc1ccc(-c2nn(C3CCCC3)c3ncnc(N)c23)cc1` [Example 16, N-[[4-(4-amino-1-cyclopentyl-pyrazolo[3,4-d]pyrimidin-3-yl)phenyl]methyl]-2-fluoro-6-methoxy-benzamide], the pIC50 (on EGFR; in experiment [1]) was 5.00 to 6.00 each time.

Consider `COc1c(F)cccc1C(=O)NCc1ccc(-c2nn(C3CCCC3)c3ncnc(N)c23)cc1` [Example 14, N-[[4-(4-amino-1-cyclopentyl-pyrazolo[3,4-d]pyrimidin-3-yl)phenyl]methyl]-3-fluoro-2-methoxy-benzamide], for which the values for the pIC50 (on EGFR; in experiment [1]) were 5.00 to 6.00 and 6.00 to 7.00, respectively.

As for `COc1ccc(C(F)(F)F)cc1C(=O)NCc1ccc(-c2nn(C3CCCC3)c3ncnc(N)c23)cc1` [Example 13, N-[[4-(4-amino-1-cyclopentyl-pyrazolo[3,4-d]pyrimidin-3-yl)phenyl]methyl]-2-methoxy-5-(trifluoromethyl)benzamide], the pIC50 is below 5.00 on EGFR, 6.00 to 7.00 in experiment [1] and 6.00 to 7.00 at BTK^WT.

`COc1cc(F)ccc1C(=O)NCc1ccc(-c2nn(C3CCCC3)c3ncnc(N)c23)cc1` [Example 15, N-[[4-(4-amino-1-cyclopentyl-pyrazolo[3,4-d]pyrimidin-3-yl)phenyl]methyl]-4-fluoro-2-methoxy-benzamide]: the pIC50 at EGFR was 5.00 to 6.00; in experiment [1], 7.00 to 8.00.

Regarding `COc1cc(C)ccc1C(=O)NCc1ccc(-c2nn(C3CCCC3)c3ncnc(N)c23)cc1` [Example 10, N-[[4-(4-amino-1-cyclopentyl-pyrazolo[3,4-d]pyrimidin-3-yl)phenyl]methyl]-2-methoxy-4-methyl-benzamide], the pIC50 on EGFR was below 5.00; in experiment [1], 6.00 to 7.00.

On to `CC(C)c1ccccc1C(=O)NCc1ccc(-c2nn(C3CCCC3)c3ncnc(N)c23)cc1` [Example 80, N-[[4-(4-amino-1-cyclopentyl-pyrazolo[3,4-d]pyrimidin-3-yl)phenyl]methyl]-2-isopropyl-benzamide], for which the pIC50 (at EGFR; in experiment [1]) was 5.00 to 6.00 each time.

Consider `COc1cc(-c2nn(C3CCCC3)c3ncnc(N)c23)ccc1CNC(=O)c1ccccc1OC` [Example 75, N-[[4-(4-Amino-1-cyclopentyl-pyrazolo[3,4-d]pyrimidin-3-yl)-2-methoxy-phenyl]methyl]-2-methoxy-benzamide], for which the pIC50 in experiment [1] was 7.00 to 8.00; on BTK^C481S it was at least 8.00; at BTK^WT, at least 8.00.

For the compound `COc1ccccc1C(=O)NC(C)c1ccc(-c2nn(C3CCCC3)c3ncnc(N)c23)cc1` (centres unmarked) [Example 64, N-[1-[4-(4-amino-1-cyclopentyl-pyrazolo[3,4-d]pyrimidin-3-yl)phenyl]ethyl]-2-methoxy-benzamide], the pIC50 (at EGFR; in experiment [1]) was 5.00 to 6.00 each time.

As for `COc1ncccc1C(=O)NCc1ccc(-c2nn(C3CCCC3)c3ncnc(N)c23)cc1` [Example 18, N-[[4-(4-amino-1-cyclopentyl-pyrazolo[3,4-d]pyrimidin-3-yl)phenyl]methyl]-2-methoxy-pyridine-3-carboxamide], the pIC50 is 6.00 to 7.00 in experiment [1], 7.00 to 8.00 on BTK^C481S and 7.00 to 8.00 at BTK^WT.

For `COc1ccccc1C(=O)NCc1ccc(-c2nn(C3CCCC3)c3ncnc(N)c23)cc1` [Example 1, N-[[4-(4-amino-1-cyclopentyl-pyrazolo[3,4-d]pyrimidin-3-yl)phenyl]methyl]-2-methoxy-benzamide], the pIC50 is 7.00 to 8.00 in experiment [1], at least 8.00 on BTK^C481S and at least 8.00 on BTK^WT.
